Data published in patent US20050191294A1, “Compositions and methods of use of targeting peptides for diagnosis and therapy” (Board of Regents, The University of Texas System, priority 2003, published 2005).
Where a SMILES comes first, the peptide text is derived from it. Bridges are numbered along the chain shown (N, C = ends). Primed or numbered codes have the meaning given here. Where no end group is shown, it is not given here. [ ]: non-standard residue; d: D form. FITC′ = not defined here

How the values were obtained:
[1] = tested on: wild-type mice obese due to old age; test: Treatment of age-related obesity in regular diet-fed wild-type mice; type: in vivo, mouse
Protocol: Fat resorption and metabolic analysis. […] Tissue lipids were measured as described.

[2] = tested on: diet-induced obese C57BL/6 mice; test: Fat resorption and metabolic analysis in diet-induced obese mice; details: 4 weeks of treatment
Description: Apoptosis was detected by using standard TUNEL immunohistochemistry.
Fat resorption and metabolic analysis. High-calorie diet for obesity induction (TD97366: 25.4% fat, 21.79% protein, 38.41% carbohydrate) was purchased from Harlan Teklad. […] Stocks of [sequence] (SEQ ID NO:4)-GG-D(KLAKLAK)2 (SEQ ID NO:11), [sequence] (SEQ ID NO:10)-GG-D(KLAKLAK)2 (SEQ ID NO:11), D(KLAKLAK)2, CARAC (SEQ ID NO:9)-GG-D(KLAKLAK)2 (SEQ ID NO:11), and [sequence] (SEQ ID NO:4) chemically synthesized, cyclized, and HPLC-purified to 99% purity (AnaSpec) were prepared by dissolving lyophilized peptides in DMSO to a concentration of 65 mM. […] Mouse weight, body temperature, and food and water consumption were monitored weekly. Tissue lipids were measured as described. […] Oxygen consumption and heat generation of fasting mice were measured for 24 h by indirect calorimetry with OXYMAX (Columbus Instruments, Columbus, Ohio). To quantify spontaneous activity, 8 mice (2 mice per cage) were placed in automated photocell activity cages (AccuScan Instruments, Columbus, Ohio). […] Horizontal locomotor activity was computer-monitored as the number of infrared beam breaks, which were detected for the period of 1 h and recorded every hour for the duration of the test (14 h) by using a Versamax Analyser. […]

LNCaP cells [3] = test: Induction of apoptosis, WST-1 cell viability assay, LNCaP; type: cell-based, human; details: 10-100 μM, 24-72 hours
Protocol: (§1) Induction and Quantification of Apoptosis with […] (SEQ ID NO:1)-GG-D(KLAKLAK)2 (SEQ ID NO:11) Synthetic Peptide. Soluble […] (SEQ ID NO:1)-GG-D(KLAKLAK)2 (SEQ ID NO:11), […] […] The unrelated control peptide […] (SEQ ID NO:5)-GG-D(KLAKLAK)2 (SEQ ID NO:11) was synthesized by Genemed Synthesis, Inc. (South San Francisco, Calif.). LNCaP, MDA-PCa-2b cells (each at 3×10^4 per well), and EF43fgf-4 cells (7) at 2×10^4 per well were seeded in triplicates and incubated in 96-well plates (Becton Dickinson, Franklin Lakes, N.J.) for 24-72 hours at 37° C., with serially increasing concentrations (10-100 μM) of […] (SEQ ID NO:1))-GG-D(KLAKLAK)2 (SEQ ID NO:11) peptide, […] (SEQ ID NO:1)-peptide alone, D(KLAKLAK)2 (SEQ ID NO:11) peptide alone, or an equimolar mixture of the unconjugated peptides […] […] LNCaP cells were also exposed in parallel to increasing concentrations (20-100 μM) of […] (SEQ ID NO:1)-GG-D(KLAKLAK)2 (SEQ ID NO:11) and unrelated control peptides […] (SEQ ID NO:4)-GG-D(KLAKLAK)2 (SEQ ID NO:11) or […] (SEQ ID NO:5)-GG-D(KLAKLAK)2 (SEQ ID NO:11), under the same conditions. […] (SEQ ID NO:1)-GG-D(LAKLAK)2 (SEQ ID NO:11) peptide for 3 hours. Response was evaluated by a cell viability assay (WST-1; Roche, Mannheim, Germany).

MDA-PCa-2b cells = test: Induction of apoptosis, WST-1 cell viability assay, MDA-PCa-2b; type: cell-based, human; details: 10-100 μM, 24-72 hours
Protocol: as §1

white fat vasculature = test: In vivo homing of fitc-peptides in wild-type mice; design: species or system mouse
DU145 cells = test: Cell apoptosis assay (Annexin-V staining), DU145; type: cell-based, human; details: DU145, 30 μM, 6 hours
Description: Cell apoptosis assays. Peptides were synthesized to our specifications at greater than 95% purity (Genemed Synthesis Inc., San Francisco, Calif.). Apoptosis was induced with a pro-apoptotic motif D(KLAKLAK)2 that disrupts mitochondrial membranes and is inert to eukaryotic plasma membranes. An equimolar concentration of the targeted [(WIFPWIQL (SEQ ID NO:6)-GG-D(KLAKLAK)2 (SEQ ID NO:11) and WDLAWMFRLPVG (SEQ ID NO:7)-GG-D(KLAKLAK)2) (SEQ ID NO:11)] and untargeted [(WIFPWIQL (SEQ ID NO:6)-+(KLAKLAK)2 (SEQ ID NO:11) and WDLAWMFRLPVG (SEQ ID NO:7)-+(KLAKLAK)2 (SEQ ID NO:11)] peptides was used. Human prostate cancer-derived DU 145 cells were grown in tissue chamber slides (Lab-Tek II Chamber Slide System; Nalge Nunc International Corp., Naperville, Ill.). Cells were washed with PBS and incubated with 30 μM (in 300 μl DMEM supplemented with 10% FBS, penicillin and streptomycin) of the targeted and untargeted peptides for 6 hours. Pure DMEM was used as an internal negative control. Apoptosis was detected with the Annexin-V-FLUOS Staining kit (Roche, Manheim, Germany) according to the manufacturer's instructions.

LNCaP cells [4] = test: Cell apoptosis assay (Annexin-V staining), LnCap; type: cell-based, human; details: LnCap (data not shown)
[5] = tested on: DU145-derived human prostate carcinoma xenografts; test: Targeted treatment of nude mice bearing DU145 human prostate carcinoma xenografts; type: in vivo; details: 300 μg/week per mouse i.v.; controls vehicle and equimolar unconjugated mixtures; P<0.001
Protocol: Establishment of mice bearing human tumor xenografts. Male athymic nu/nu (nude) mice were obtained commercially from Harlan-Sprague-Dawley (Indianapolis, Ind.). Human prostate cancer xenografts were established by injection of DU 145 cells (10^6 cells in a 200 μl DMEM) in the subcutaneous tissue of 2 months old male nude mice.
Targeted treatment ofnude mice bearing human prostate carcinoma xenografts. DU145-derived tumor xenografts were established in male nude mice as described above. GRP78-targeting peptides used for therapy were coupled to the pro-apoptotic motif D(KLAKLAK)2 ([…]) and controls were treated with an equimolar concentration of the GRP78-targeting peptides and the pro-apoptotic motif. Mice were divided into groups of seven animals and treatment started when mean tumor volume for each group was around 200 mm^3. Two-dimensional measurements of tumors were made by caliper on anesthetized mice, and were used to calculate tumor volume. […]
Statistical analysis. Experiments are expressed as mean±standard errors of the means (SEM) of triplicate plates and analyzed by using the two-tailed Student's t test (t test). Tumor volumes were calculated individually for each mouse throughout the study and results are also expressed as mean±SEM for all the groups.

recombinant GRP78 = target: T1, recombinant GRP78 (Mesocricetus auratus, UniProt P07823); test: In vitro phage binding assay on immobilized GRP78; details: increasing concentrations of synthetic peptide against the corresponding phage
T1 construct: purchased Stressgen, Victoria, Canada
Protocol: In vitro phage binding assays. GRP78, HSP70, HSP90 (all from Stressgen, Victoria, Canada) and bovine serum albumin (BSA) were immobilized on microtiter wells of 96-well plates overnight at 4° C. Wells were washed twice with phosphate-buffered saline (PBS), blocked with PBS containing 3% BSA for 1 hour at room temperature (RT), and incubated with 10^9 transducing units (TU) of WIFPWIQL (SEQ ID NO:6)-phage, WDLAWMFRLPVG (SEQ ID NO:7)-phage, or insertless control phage (Fd-tet) in 50 μl of PBS containing 1.5% BSA. After 2 hours at RT, wells were washed with PBS, and bound phage were recovered by infection with host bacteria (log-phase Escherichia coli K91 kan; OD600≈2). Aliquots of the bacterial culture were plated onto Luria-Bertani broth (LB) agar plates supplemented with 40 μg/ml tetracycline and 100 μg/ml kanamycin. Plates were incubated overnight at 37° C., and phage TU were counted in triplicate plates. Increasing concentrations of synthetic peptides WIFPWIQL (SEQ ID NO:6), WDLAWMFRLPVG (SEQ ID NO:7)-, and an unrelated control peptide CARAC (SEQ ID NO:9) (Genemed Synthesis Inc., San Francisco, Calif.) were used to evaluate competitive inhibition of phage binding. All peptides were solubilized in a standard stock solution of 10% dimethylsulfoxide (DMSO) and diluted to working concentrations for the assays.

T1 sequence (P07823 19-654): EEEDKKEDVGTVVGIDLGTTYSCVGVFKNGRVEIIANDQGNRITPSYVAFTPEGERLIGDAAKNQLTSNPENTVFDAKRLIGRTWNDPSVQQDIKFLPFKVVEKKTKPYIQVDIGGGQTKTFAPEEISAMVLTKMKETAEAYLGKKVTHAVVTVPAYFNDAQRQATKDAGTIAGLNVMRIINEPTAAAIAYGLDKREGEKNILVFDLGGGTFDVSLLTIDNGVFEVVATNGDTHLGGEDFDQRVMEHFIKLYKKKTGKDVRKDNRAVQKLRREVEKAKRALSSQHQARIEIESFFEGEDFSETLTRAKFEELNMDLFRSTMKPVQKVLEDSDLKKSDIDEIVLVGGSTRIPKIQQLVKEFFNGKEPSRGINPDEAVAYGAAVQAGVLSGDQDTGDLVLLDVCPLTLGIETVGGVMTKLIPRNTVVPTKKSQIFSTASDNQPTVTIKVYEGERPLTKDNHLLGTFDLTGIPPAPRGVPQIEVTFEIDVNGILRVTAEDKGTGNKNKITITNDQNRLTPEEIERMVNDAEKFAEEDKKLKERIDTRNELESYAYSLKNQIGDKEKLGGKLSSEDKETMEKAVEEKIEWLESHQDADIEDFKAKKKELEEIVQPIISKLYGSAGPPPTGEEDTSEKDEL

CC(C)C[C@@H](NC(=O)[C@@H](CCCCN)NC(=O)CNC(=O)CNC(=O)[C@@H]1CSSC[C@H](N)C(=O)N[C@@H](CCCCN)C(=O)NCC(=O)NCC(=O)N[C@@H](CCCNC(=N)N)C(=O)N[C@@H](C)C(=O)N[C@@H](CCCCN)C(=O)N[C@@H](CC(=O)O)C(=O)N1)C(=O)N[C@H](C)C(=O)N[C@H](CCCCN)C(=O)N[C@H](CC(C)C)C(=O)N[C@H](C)C(=O)N[C@H](CCCCN)C(=O)N[C@H](CCCCN)C(=O)N[C@H](CC(C)C)C(=O)N[C@H](C)C(=O)N[C@H](CCCCN)C(=O)N[C@H](CC(C)C)C(=O)N[C@H](C)C(=O)N[C@H](CCCCN)C(=O)O (H-CKGGRAKDCGG[dK][dL][dA][dK][dL][dA][dK][dK][dL][dA][dK][dL][dA][dK]-OH; disulfide 1-9)
toxicity [1]: without detectable toxicity | apoptosis and appearance of control organs such as liver [2]: apoptosis was not detected in the control tissues

CGRRAGGSC (SEQ ID NO:1): soluble IL-11-mimic peptide alone, used as control
programmed cell death / toxic effect (WST-1 cell viability) (LNCaP cells [3]): no measurable toxic effects | programmed cell death / toxic effect (WST-1 cell viability) (MDA-PCa-2b cells): no measurable toxic effects

CKGGRAKDC (SEQ ID NO:4)-fitc: soluble CKGGRAKDC peptide linked to fluorescein (fitc) at its C-terminus (CKGGRAKDC-{FITC′}; also: cyclized, bridge type not given here)
presence in isolated ex-vivo blood vessels from white fat tissue (white fat vasculature; mouse, in vivo): presence | detection in white fat vasculature (white fat vasculature; wild-type C57BL/6 mice, i.v., 5 min prior to tissue collection): specifically localized to and was internalized by blood vessels of subcutaneous and peritoneal white fat | homing to blood vessels of brown fat, liver and other control organs (white fat vasculature; wild-type mice, i.v.): no CKGGRAKDC (SEQ ID NO:4)-fitc homing was observed

D(KLAKLAK)2 (SEQ ID NO:11): amphipathic, α-helix-forming anti-microbial pro-apoptotic peptide KLAKLAKKLAKLAK (D-amino acids) [reference compound]
programmed cell death / toxic effect (WST-1 cell viability) (LNCaP cells [3]): no measurable toxic effects | programmed cell death / toxic effect (WST-1 cell viability) (MDA-PCa-2b cells): no measurable toxic effects

WDLAWMFRLPVG (SEQ ID NO:7)-GG-D(KLAKLAK)2 (SEQ ID NO:11): GRP78-targeted pro-apoptotic peptide (WDLAWMFRLPVGGG[dK][dL][dA][dK][dL][dA][dK][dK][dL][dA][dK][dL][dA][dK])
toxicity / apoptosis (Annexin-V staining) (DU145 cells): induced apoptosis | toxicity / apoptosis (Annexin-V staining) (LNCaP cells [4]): induced apoptosis | mean tumor volume relative to the controls [5]: significantly smaller

WDLAWMFRLPVG (SEQ ID NO:7): synthetic GRP78-binding peptide
inhibition of phage binding to GRP78 by synthetic peptide (recombinant GRP78): inhibit binding of the corresponding phage in a dose-dependent manner

WIFPWIQL (SEQ ID NO:6)-GG-D(KLAKLAK)2 (SEQ ID NO:11): GRP78-targeted pro-apoptotic peptide (WIFPWIQLGG[dK][dL][dA][dK][dL][dA][dK][dK][dL][dA][dK][dL][dA][dK])
toxicity / apoptosis (Annexin-V staining) (DU145 cells): induced apoptosis | toxicity / apoptosis (Annexin-V staining) (LNCaP cells [4]): induced apoptosis | mean tumor volume relative to the controls [5]: significantly smaller

WIFPWIQL (SEQ ID NO:6): synthetic GRP78-binding peptide
inhibition of phage binding to GRP78 by synthetic peptide (recombinant GRP78): inhibit binding of the corresponding phage in a dose-dependent manner
